From the OPERA property sets (Mansouri et al. 2018)

Going from CN(C)N=O to CCC(=O)NC, the boiling point falls from 154 °C to 148 °C.

Compared with CCC(c1ccccc1)c1ccccc1, C[C@@H](CN)c1ccccc1 is lower in boiling point: 282 °C for the first, 210 °C for the second.

Compared with Cc1cc(C)c2ccccc2n1, CC(C#N)c1ccccc1 (configuration not stated) is lower in boiling point: 265 °C for the first, 231 °C for the second.

First: C=CCOC(=O)C(=O)OCC=C
Second: C=CCc1ccc(OC=O)c(OC)c1
The boiling point of the first is lower: 217 °C for the first, 270 °C for the second.

Compared with OC1CCCCC1, N#CC1CC1 is lower in boiling point: 161 °C for the first, 135 °C for the second.

Compared with CC(C)C12CCC(C)(CC1)O2, CC(C)CC(=O)C(C)C is lower in boiling point: 174 °C for the first, 148 °C for the second.

Going from Cc1ccc2c(c1)CC=C2 to Cc1cccc(CC#N)c1, the boiling point rises from 207 °C to 248 °C.

First: C=C[Si](C)(C)O[Si](C)(C)C=C
Second: C[Si](C)(Cl)C(Cl)Cl
The boiling point of the first is lower: 39 °C for the first, 149 °C for the second.

Compared with CN1C2CCC1CC(=O)C2, Cc1ncc[nH]1 is higher in boiling point: 227 °C for the first, 267 °C for the second.

First: Cc1csc(C)n1
Second: CCc1nc(C)cnc1C
The boiling point of the first is lower: 146 °C for the first, 180 °C for the second.

Compared with Cc1ccnc(Cl)c1, Cc1cc(C)c(Cl)c(C)c1 is higher in boiling point: 192 °C for the first, 205 °C for the second.

Going from COc1cccc(O)c1 to O=C(Cl)OCc1ccccc1, the boiling point falls from 244 °C to 152 °C.

Compared with Oc1cc(O)c(Cl)cc1Cl, Cc1cc(C)cc(Br)c1 is lower in boiling point: 254 °C for the first, 204 °C for the second.

First: CCCOP(=O)(OCCC)OCCC
Second: CCOC(CCCN)OCC
The boiling point of the first is higher: 252 °C for the first, 196 °C for the second.

Going from N#Cc1ccc(Cl)cc1 to CCCCc1cccc2ccccc12, the boiling point rises from 223 °C to 289 °C.

Going from ClCCCCl to CCCCCCCl, the boiling point rises from 121 °C to 135 °C.

Going from C/C=C(\C)C(=O)O to CN[C@@H](C)[C@H](O)c1ccccc1, the boiling point rises from 198 °C to 255 °C.

First: CCOCc1ccco1
Second: C=CCCCCCCCC
The boiling point of the first is lower: 149 °C for the first, 170 °C for the second.

Going from CN(C)N=O to CCC(=O)NC, the log10 vapour pressure (mmHg) falls from 0.431 to 0.0603.

First: Cc1cc(C)c2ccccc2n1
Second: Cc1cc(C2CC2)nc(Nc2ccccc2)n1
The log10 vapour pressure (mmHg) of the first is higher: -2.1 for the first, -5.43 for the second.

Compared with OC1CCCCC1, CC(C)C12CCC(C)(CC1)O2 is higher in log10 vapour pressure (mmHg): -0.0969 for the first, 0.286 for the second.

Going from O=C([O-])C(F)(F)C(F)F.[Na+] to C/C=C(\C)C(=O)O, the log10 vapour pressure (mmHg) rises from -3.52 to -0.875.

First: Cc1csc(C)n1
Second: COc1cccc(O)c1
The log10 vapour pressure (mmHg) of the first is higher: 0.706 for the first, -1.71 for the second.

First: C[Si](C)(C)O[Si](C)(C)O[Si](C)(C)O[Si](C)(C)O[Si](C)(C)O[Si](C)(C)O[Si](C)(C)O[Si](C)(C)C
Second: COC(=O)NC(=S)Nc1ccccc1NC(=S)NC(=O)OC
The log10 vapour pressure (mmHg) of the first is higher: -2.5 for the first, -7.15 for the second.

Compared with O=C(Cl)OCc1ccccc1, ClCCCCl is higher in log10 vapour pressure (mmHg): -2.51 for the first, 1.26 for the second.

Compared with CCCCCCCl, C=CCCCCCCCC is lower in log10 vapour pressure (mmHg): 0.972 for the first, 0.223 for the second.

With CN(C)N=O the ready biodegradability was “not readily biodegradable”.
In the case of OC1CCCCC1, the ready biodegradability is reported as “readily biodegradable”.
For COc1ccc(C(=O)c2ccccc2)c(O)c1, the ready biodegradability was “not readily biodegradable”.
In the case of C=CC(=O)N(C)C, the ready biodegradability is reported as “not readily biodegradable”.
In the case of CCOC(=O)c1ccc(-c2ccc(C(=O)OCC)c(C(=O)OCC)c2)cc1C(=O)OCC, the ready biodegradability is reported as “readily biodegradable”.
In the case of COc1cccc(O)c1, the ready biodegradability is reported as “readily biodegradable”.
For O=NN1CN2CN(C1)CN(N=O)C2, the ready biodegradability was “readily biodegradable”.
In the case of Cc1ncc[nH]1, the ready biodegradability is reported as “not readily biodegradable”.

Compared with CCC(c1ccccc1)c1ccccc1, c1ccc(CSCc2ccccc2)cc1 is higher in melting point: 13.3 °C for the first, 49.5 °C for the second.

Compared with O=c1c(O)c(-c2ccc(O)cc2O)oc2cc(O)cc(O)c12, COc1ccc(C(=O)c2ccccc2)c(O)c1 is lower in melting point: 304 °C for the first, 65.5 °C for the second.

Going from OC1CCCCC1 to CN1C2CCC1CC(=O)C2, the melting point rises from 25.4 °C to 43 °C.

Going from CC(C)C12CCC(C)(CC1)O2 to C[C@]12CC[C@H](O)CC1=CC[C@@H]1[C@@H]2CC[C@@]2(C)[C@H]1CC[C@]2(C)O, the melting point rises from 1 °C to 206 °C.

First: C[N+]1(CCC(O)(c2ccccc2)c2cccs2)CCOCC1.[I-] (configuration not stated)
Second: CCCCc1cccc2ccccc12
The melting point of the first is higher: 190 °C for the first, -19.8 °C for the second.

First: O=C1c2ccccc2Cc2ccccc21
Second: Nc1ccc(N)c2ccccc12
The melting point of the first is higher: 155 °C for the first, 120 °C for the second.

First: NS(=O)(=O)c1ccc(SCCCO)c(F)c1
Second: COc1ccc(O)c([N+](=O)[O-])c1
The melting point of the first is higher: 110 °C for the first, 79 °C for the second.

Going from COC(=O)C1CC(=O)N(C)C1 (configuration not stated) to CCC(=O)NC, the melting point falls from 15 °C to -30.9 °C.

Going from C=C[Si](C)(C)O[Si](C)(C)C=C to C[Si](C)(Cl)C(Cl)Cl, the melting point rises from -99.7 °C to -48 °C.

Going from Cc1cccc(N2CC(CO)OC2=O)c1 (configuration not stated) to COc1ccc(C(=O)c2cccc(C)c2)cc1C, the melting point falls from 76 °C to 62.3 °C.

Compared with CC(=O)Oc1cccc(C(=O)O)c1OC(C)=O, O=C(O)CNC(=O)c1ccccc1O is higher in melting point: 149 °C for the first, 168 °C for the second.

First: Cc1cc(C2CC2)nc(Nc2ccccc2)n1
Second: CN1C2CCC1CC(OC(=O)c1ccccc1)C2 (configuration not stated)
The melting point of the first is higher: 75.9 °C for the first, 49 °C for the second.

First: CC(=O)Oc1c(I)cc(I)cc1C(=O)Nc1ccc(Cl)cc1
Second: CS(=O)(=O)NC(=O)c1cc(Oc2ccc(C(F)(F)F)cc2Cl)ccc1[N+](=O)[O-]
The melting point of the first is lower: 216 °C for the first, 220 °C for the second.

Going from Cc1ccnc(Cl)c1 to Cc1ncc[nH]1, the melting point rises from 115 °C to 144 °C.

Going from NC(N)=N/C(N)=N/c1ccccc1 to CCC(C(=O)NC(N)=O)c1ccccc1 (configuration not stated), the melting point rises from 143 °C to 162 °C.

First: Oc1cc(O)c(Cl)cc1Cl
Second: N#Cc1ccc(Cl)cc1
The melting point of the first is higher: 113 °C for the first, 95 °C for the second.

Compared with O=NN1CN2CN(C1)CN(N=O)C2, C=C1/C(=C\C=C2/CCC[C@]3(C)[C@@H]([C@H](C)CCCC(C)(C)O)CC[C@@H]23)C[C@@H](O)C[C@@H]1O is lower in melting point: 204 °C for the first, 115 °C for the second.

Compared with Fc1c(F)c(F)c(Sc2c(F)c(F)c(F)c(F)c2F)c(F)c1F, CC(COc1ccc(C(C)(C)C)cc1)OS(=O)OCCCl (configuration not stated) is lower in melting point: 87 °C for the first, -31.7 °C for the second.

First: ClCCCCl
Second: CCCCCCCl
The melting point of the first is lower: -99.5 °C for the first, -94 °C for the second.

First: C/C=C(\C)C(=O)O
Second: CCB(O)O
The melting point of the first is higher: 64.5 °C for the first, 40 °C for the second.

First: BrCCOc1ccccc1
Second: C=CCCCCCCCC
The melting point of the first is higher: 39 °C for the first, -66.3 °C for the second.

Going from OC1CCCCC1 to COc1cccc(O)c1, the log10 Henry constant (atm·m³/mol) falls from -5.36 to -7.24.

Going from CCCOP(=O)(OCCC)OCCC to CCCCCCCl, the log10 Henry constant (atm·m³/mol) rises from -6.17 to -1.62.

Going from ClCCCCl to COc1ccc(O)c([N+](=O)[O-])c1, the log10 Henry constant (atm·m³/mol) falls from -3.01 to -5.73.

OC1CCCCC1 showed a log10 Koa of 5.18.

Going from COc1cccc(O)c1 to COC(=O)NC(=S)Nc1ccccc1NC(=S)NC(=O)OC, the log10 Koc (L/kg) rises from 1.5 to 3.25.

For CS(=O)(=O)NC(=O)c1cc(Oc2ccc(C(F)(F)F)cc2Cl)ccc1[N+](=O)[O-], the log10 Koc (L/kg) was 1.78.
